Where two headings read alike, the source gives them in different places.
How the values were obtained:
soluble adenylyl cyclase = settings: cited from earlier work
[1] = molecular target: T1, Purified recombinant sACt protein (Rattus norvegicus, UniProt Q9Z286); assay: In vitro adenylyl cyclase assay with purified recombinant sACt; assay type: biochemical; settings: for % Basal (adenylyl cyclase activity relative to activity in the absence of any salts): salts at 50 mM
T1 construct: sACt, amino acids 1-469, plus a C-terminal Hexahistidine tag; Hexahistidine (C); made in house; host or cells: insect HiFive cells (baculovirus, Bac-to-Bac)
T1 sequence (Q9Z286 1-469): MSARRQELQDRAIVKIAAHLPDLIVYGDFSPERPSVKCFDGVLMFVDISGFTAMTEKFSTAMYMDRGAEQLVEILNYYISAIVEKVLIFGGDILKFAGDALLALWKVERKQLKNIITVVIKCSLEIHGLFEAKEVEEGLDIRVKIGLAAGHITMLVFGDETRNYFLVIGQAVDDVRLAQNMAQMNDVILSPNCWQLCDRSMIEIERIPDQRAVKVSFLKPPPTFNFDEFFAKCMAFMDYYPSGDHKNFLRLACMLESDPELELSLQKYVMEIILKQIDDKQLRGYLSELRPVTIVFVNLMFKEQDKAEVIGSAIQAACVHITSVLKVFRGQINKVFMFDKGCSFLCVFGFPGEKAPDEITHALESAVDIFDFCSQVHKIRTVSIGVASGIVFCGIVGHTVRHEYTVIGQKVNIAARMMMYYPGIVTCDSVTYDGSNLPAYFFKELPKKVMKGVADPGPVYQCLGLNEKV
Method: (§1) The cell lines were starved for bicarbonate (grown in HEPES-bufferred, NaHCO3-free D-MEM under ambient CO2) for 24 hours. Cellular cAMP accumulation and in vitro adenylyl cyclase activity in the presence of [a^32P] ATP and MnCl2 or MgCl2 were assayed. In vitro adenylyl cyclase assays were performed at pH 7.5 in Tris-buffered solutions.
Kinetic parameters were determined using KinetAsyst II (IntelliKinetics).

[2] = molecular target: T2, full-length and truncated forms of sAC (Rattus norvegicus, UniProt Q9Z286); assay: Adenylyl cyclase assay in whole-cell sonicates from sAC-transfected HEK293 cells; assay type: biochemical; settings: both full-length and truncated forms
T2 construct: we heterologously expressed the full-length cDNA in HEK293 cells; expressed in transfected cells; host or cells: HEK293, transient, pBK-CMV
Source text: Heterologous Expression. To confirm that the gene we isolated encoded an adenylyl cyclase, we heterologously expressed the full-length cDNA in HEK293 cells. The full-length and truncated sAC cDNAs were expressed from the library vector (pBK-CMV) under the control of the cytomegalovirus promoter after deletion of the intervening bacterial promoter sequences (as an NheI-SpeI fragment). The truncated sAC cDNA (sACt) represented a library clone that was missing an exon. The resultant protein shifted the reading frame after valine 469 (FIG. 1; underline), introducing two incorrect amino acids (serine and cysteine) followed by a stop codon. Expression constructs were transiently introduced into HEK293 by lipofectamine—mediated transfection (Life Technologies, Grand Island, N.Y.). One or two days after transfection, cells were harvested, resuspended in lysis buffer (50 mM Tris-HCl, pH 7.5/1 mM EDTA/1 mM DTT/0.1 mg/ml Leupeptin/1 mM phenylmethylsulfonyl fluoride) and disrupted by microtip probe sonication on ice. Whole-cell sonicates were ultramicrocentrifuged at >100,000×g for 10 minutes. Supernatants were cleared by a second centrifugation to yield ‘cytosolic’ extracts. Pellets were resuspended in lysis buffer by passage through a 27.5-gauge needle to generate ‘particulate fraction. […]

sAC [3] = assay: Soluble adenylyl cyclase activity in cytosolic extracts from rat testis; settings: read-out: Km for ATP; in the presence of MnCl2
tmACs = settings: read-out: Km of tmACs for substrate ATP; cited from earlier work
sAC [4] = settings: read-out: Km of sAC for substrate ATP; cited from earlier work
[5] = molecular target: sAC as co-expressed with mammalian CAP; assay: cell-based or functional assay
truncated form of sAC = molecular target: T3, truncated form of sAC (Rattus norvegicus, UniProt Q9Z286); assay: P site ligand test on truncated sAC; assay type: biochemical
T3 construct: sACt, amino acids 1-469
T3 sequence (Q9Z286 1-469): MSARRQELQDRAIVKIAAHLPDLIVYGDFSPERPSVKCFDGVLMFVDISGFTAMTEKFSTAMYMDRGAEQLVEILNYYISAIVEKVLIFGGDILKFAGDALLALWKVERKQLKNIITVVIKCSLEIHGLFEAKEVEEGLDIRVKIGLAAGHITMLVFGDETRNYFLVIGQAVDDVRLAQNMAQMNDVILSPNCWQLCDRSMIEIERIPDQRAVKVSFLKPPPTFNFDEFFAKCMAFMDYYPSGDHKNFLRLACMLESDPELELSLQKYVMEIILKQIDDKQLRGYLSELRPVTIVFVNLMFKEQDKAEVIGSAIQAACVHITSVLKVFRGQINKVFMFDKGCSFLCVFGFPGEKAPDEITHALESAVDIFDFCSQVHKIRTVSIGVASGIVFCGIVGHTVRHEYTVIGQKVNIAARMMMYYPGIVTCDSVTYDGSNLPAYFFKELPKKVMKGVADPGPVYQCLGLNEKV
Source text: (3) P site ligands and inhibitors of other ATP-utilizing enzymes.

Spirulina platensis CyaC [6] = molecular target: T4, Spirulina platensis CyaC (Limnospira platensis, UniProt O32393); settings: 0-60 mM NaHCO3, 100 μM ATP, 5 mM MnCl2
sAC [7] = assay: Adenylyl cyclase activity in anti-sAC immunoprecipitates from rat testis cytosol; assay type: biochemical; settings: 40 mM NaHCO3 or 100 μM Forskolin
Method: Rat testis were tested for sAC activity by immunoassay. Immunoprecipitates from rat testis cytosol were tested using either pre-immune serum or α-sAC antisera. […]. […]. Data in FIG. 4b are presented as pmol of cAMP formed over 20 minutes, and values represent averages of duplicate determinations with standard deviations indicated.

[8] = test system: HEK293/V cells, which express endogenous tmACs; settings: for Cellular cAMP accumulation in HEK293/V: vector transfected cells
Method: as §1
Among mammalian adenylyl cyclases, sAC appears to be the only form regulated by bicarbonate ions.

sACfl = sACfl (Rattus norvegicus, UniProt Q9Z286)
Method: as §1

Spirulina platensis CyaC [9] = molecular target: T4, Spirulina platensis CyaC; assay: biochemical
sAC [10] = assay: Ecdysone inducible sAC expression in transiently transfected NIH3T3 cells; assay type: cell-based; settings: transient transfection
Source text: The commercially available (Invitrogen) ecdysone inducible system (No, D. et al., PNAS, 1996, 93:3346-3351) is based on an insect hormone regulated transcriptional activator, the ecdysone receptor (EcR). This system takes advantage of the specificity of EcR for its own response element, and the lack of any cross-reactivity by any mammalian transcription factor. We stably introduced both the EcR and its requisite partner, Retinoid X Receptor (RXR) into NIH3T3 cells. Additionally, to confirm the efficacy of this expression system, we performed pilot experiments with 3T3 cells transiently transfected with both plasmids. […] This induction was overcome by co-expression of sAC antisense (αsAA). The sequence was the entire sAC truncated (sAC trunc) sequence cloned in reverse orientation with respect to the promoter. The coding sequence for sAC trunc was approximately 1 through 1710 and the antisense was nucleotides 1710 through 1. For the antisense experiment, we transiently transfected three plasmids into NIH3T3 cells: 1) Ecdysone receptor/RXR expression plasmid; 2) sAC trunc expression plasmid (driven by ecdysone promoter) and 3) antisense expression plasmid (driven by ecdysone promoter).

sAC [11] = molecular target: T5, sAC (Rattus norvegicus, UniProt Q9Z286); assay: Co-expression of mammalian CAP with sAC
T5 construct: expressed in transfected cells
T5 sequence (Q9Z286 whole entry): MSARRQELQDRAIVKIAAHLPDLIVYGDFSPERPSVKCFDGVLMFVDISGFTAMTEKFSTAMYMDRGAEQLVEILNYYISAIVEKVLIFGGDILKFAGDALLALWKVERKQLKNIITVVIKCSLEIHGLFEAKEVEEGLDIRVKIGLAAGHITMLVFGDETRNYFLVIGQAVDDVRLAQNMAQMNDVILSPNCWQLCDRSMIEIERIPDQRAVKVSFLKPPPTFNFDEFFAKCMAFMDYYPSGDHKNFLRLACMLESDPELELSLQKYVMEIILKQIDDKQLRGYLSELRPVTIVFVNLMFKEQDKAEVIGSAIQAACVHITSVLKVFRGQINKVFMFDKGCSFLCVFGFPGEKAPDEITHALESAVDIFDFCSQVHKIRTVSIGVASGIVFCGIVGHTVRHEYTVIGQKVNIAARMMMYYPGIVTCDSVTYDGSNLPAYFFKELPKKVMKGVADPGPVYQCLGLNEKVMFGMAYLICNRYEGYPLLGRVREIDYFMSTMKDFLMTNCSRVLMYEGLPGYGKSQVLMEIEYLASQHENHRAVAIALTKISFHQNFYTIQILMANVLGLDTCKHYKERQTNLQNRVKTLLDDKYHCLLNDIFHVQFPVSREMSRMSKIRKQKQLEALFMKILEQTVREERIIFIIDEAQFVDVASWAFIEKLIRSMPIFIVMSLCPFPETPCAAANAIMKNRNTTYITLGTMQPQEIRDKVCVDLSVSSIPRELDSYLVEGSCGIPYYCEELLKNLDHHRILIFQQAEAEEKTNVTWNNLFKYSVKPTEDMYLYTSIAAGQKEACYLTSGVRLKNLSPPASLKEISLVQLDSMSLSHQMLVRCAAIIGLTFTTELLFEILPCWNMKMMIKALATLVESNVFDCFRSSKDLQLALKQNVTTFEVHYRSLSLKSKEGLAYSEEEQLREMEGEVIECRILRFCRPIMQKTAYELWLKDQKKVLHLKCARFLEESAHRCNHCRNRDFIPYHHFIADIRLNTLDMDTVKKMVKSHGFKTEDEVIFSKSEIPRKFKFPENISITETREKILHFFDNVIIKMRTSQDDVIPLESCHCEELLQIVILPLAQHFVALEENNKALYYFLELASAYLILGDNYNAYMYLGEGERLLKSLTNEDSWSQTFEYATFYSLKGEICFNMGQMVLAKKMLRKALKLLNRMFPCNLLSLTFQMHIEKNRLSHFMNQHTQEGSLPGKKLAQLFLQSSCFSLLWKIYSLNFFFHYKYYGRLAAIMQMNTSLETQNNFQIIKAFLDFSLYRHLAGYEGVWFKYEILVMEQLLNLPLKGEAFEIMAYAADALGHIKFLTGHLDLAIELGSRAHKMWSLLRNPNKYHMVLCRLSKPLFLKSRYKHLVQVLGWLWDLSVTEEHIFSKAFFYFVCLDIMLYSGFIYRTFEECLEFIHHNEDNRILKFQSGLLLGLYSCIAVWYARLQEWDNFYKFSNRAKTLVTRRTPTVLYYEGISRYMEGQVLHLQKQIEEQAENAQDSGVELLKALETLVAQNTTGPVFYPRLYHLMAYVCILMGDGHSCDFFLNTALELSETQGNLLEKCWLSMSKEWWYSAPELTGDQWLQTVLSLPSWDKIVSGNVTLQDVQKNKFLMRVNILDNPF

Sequence of sACfl (Q9Z286 whole entry): as above
T4 sequence (O32393 1-1202): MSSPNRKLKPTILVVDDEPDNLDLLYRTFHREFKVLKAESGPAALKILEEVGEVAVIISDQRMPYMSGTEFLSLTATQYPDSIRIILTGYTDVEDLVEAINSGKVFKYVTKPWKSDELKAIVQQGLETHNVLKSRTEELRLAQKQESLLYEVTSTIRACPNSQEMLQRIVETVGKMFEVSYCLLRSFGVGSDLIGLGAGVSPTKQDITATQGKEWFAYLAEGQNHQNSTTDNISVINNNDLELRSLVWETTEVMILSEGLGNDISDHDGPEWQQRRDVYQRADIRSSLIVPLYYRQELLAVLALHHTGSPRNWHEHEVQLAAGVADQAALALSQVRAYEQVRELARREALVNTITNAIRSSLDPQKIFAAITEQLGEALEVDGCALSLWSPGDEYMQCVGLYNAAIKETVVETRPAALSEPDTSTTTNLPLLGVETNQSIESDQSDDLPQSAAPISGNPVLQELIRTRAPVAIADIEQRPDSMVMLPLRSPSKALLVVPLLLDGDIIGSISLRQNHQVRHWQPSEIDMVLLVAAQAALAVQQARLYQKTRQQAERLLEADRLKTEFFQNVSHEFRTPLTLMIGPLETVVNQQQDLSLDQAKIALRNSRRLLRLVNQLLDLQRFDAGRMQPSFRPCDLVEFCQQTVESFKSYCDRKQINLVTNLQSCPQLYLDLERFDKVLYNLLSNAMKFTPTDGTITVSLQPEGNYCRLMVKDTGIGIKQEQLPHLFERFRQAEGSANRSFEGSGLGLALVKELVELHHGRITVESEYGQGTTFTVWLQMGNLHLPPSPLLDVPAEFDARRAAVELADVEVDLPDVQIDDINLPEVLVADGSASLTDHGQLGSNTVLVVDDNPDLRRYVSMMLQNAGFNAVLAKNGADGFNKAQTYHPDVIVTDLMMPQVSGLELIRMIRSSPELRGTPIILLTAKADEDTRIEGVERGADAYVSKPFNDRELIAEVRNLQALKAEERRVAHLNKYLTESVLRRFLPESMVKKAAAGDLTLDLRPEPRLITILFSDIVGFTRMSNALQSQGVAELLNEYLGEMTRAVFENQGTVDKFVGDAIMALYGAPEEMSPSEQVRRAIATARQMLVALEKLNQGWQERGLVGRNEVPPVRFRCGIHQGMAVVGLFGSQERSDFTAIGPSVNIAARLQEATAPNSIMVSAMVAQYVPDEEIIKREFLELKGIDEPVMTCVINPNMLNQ
T2 sequence (Q9Z286 whole entry, the tested form may be a part): as the sequence (Q9Z286 whole entry) above

NCCc1ccc(O)c(O)c1 [dopamine]
Potency of sAC inhibition relative to catechol estrogens (fold less potent) (soluble adenylyl cyclase): 1,000 fold

NC[C@H](O)c1ccc(O)c(O)c1 [norepinephrine]
Potency of sAC inhibition relative to catechol estrogens (fold less potent) (soluble adenylyl cyclase): 1,000 fold

N[C@@H](Cc1ccc(O)c(O)c1)C(=O)O [L-dopa]
Potency of sAC inhibition relative to catechol estrogens (fold less potent) (soluble adenylyl cyclase): 1,000 fold

O=S([O-])[O-].[Na+].[Na+] [Na2SO3]
% Basal (adenylyl cyclase activity relative to activity in the absence of any salts) [1]: 164 ± 2.9%

Nc1nc2c(ncn2[C@@H]2O[C@H](COP(=O)(O)OP(=O)(O)OP(O)(O)=S)[C@@H](O)[C@H]2O)c(=O)[nH]1 [GTPγS]
Response of heterologously expressed sAC to stimulators of tmAC activity [2]: completely insensitive

O=C([O-])O.[K+] [KHCO3]
% Basal (adenylyl cyclase activity relative to activity in the absence of any salts) [1]: 412 ± 6.1%

Nc1ncnc2c1ncn2[C@@H]1O[C@H](COP(=O)(O)OP(=O)(O)OP(=O)(O)O)[C@@H](O)[C@H]1O [ATP]
Km (sAC [3]): 1200 µM
Km (tmACs): ~100 µM
Km (sAC [4]): ~1000 µM

mammalian ortholog of yeast CAP (Cyclase Associated Protein)
sAC activity on co-expression [5]: 4 fold

Nc1ncnc2c1ncn2[C@H]1CC[C@@H](CO)O1 [2′,3′-dideoxyadenosine]
Sensitivity of sAC to P site ligand (truncated form of sAC): insensitivity

O=S(=O)([O-])[O-].[Na+].[Na+] [Na2SO4]
% Basal (adenylyl cyclase activity relative to activity in the absence of any salts) [1]: 66 ± 4.6%

[Cl-].[Na+] [NaCl]
% Basal (adenylyl cyclase activity relative to activity in the absence of any salts) [1]: 93 ± 11.8%

O=P([O-])([O-])O.[Na+].[Na+] [Na2HPO4]
% Basal (adenylyl cyclase activity relative to activity in the absence of any salts) [1]: 75 ± 2.6%

O=C(O)O [NaHCO3]
Fold stimulation of CyaC AC activity (Spirulina platensis CyaC [6]): 2.5 fold
Effect on immunoprecipitated AC activity (sAC [7]): stimulated
EC50 [1]: 25.4 ± 7.6 mM
Fold stimulation of purified enzyme ([1]; 0-80 mM NaHCO3, 10 mM ATP, 40 mM MgCl2): greater than seven-fold
% Basal (adenylyl cyclase activity relative to activity in the absence of any salts) [1]: 411 ± 5.3%
Cellular cAMP accumulation in HEK293/V [8]: not in vector transfected HEK293 cells
Cellular cAMP accumulation in HEK293/V ([8]; listed as bicarbonate): unaffected
tmAC activity submaximally stimulated by forskolin ([8]; with forskolin): insensitive
Adenylyl cyclase activity in cellular lysates from HEK293/sACfl (sACfl; 50 mM NaHCO3): stimulated
Cellular cAMP accumulation in HEK293/sACfl (sACfl; after 24 hours bicarbonate starvation): stimulated cAMP accumulation
EC50 (Spirulina platensis CyaC [9]): 18.8 ± 1.6 mM

O=S([O-])O.[Na+] [NaHSO3]
% Basal (adenylyl cyclase activity relative to activity in the absence of any salts) [1]: 138 ± 4.6%

CC(C)CC[C@@H](O)[C@](C)(O)[C@H]1CC[C@@]2(O)C3=CC(=O)[C@@H]4C[C@@H](O)[C@@H](O)C[C@]4(C)[C@H]3CC[C@]12C [ponasterone A]
sAC activity in cells with ecdysone inducible sAC expression (sAC [10]): dependent increase in sAC activity

B1: mammalian CAP: mammalian ortholog of yeast Cyclase Associated Protein, co-expressed with sAC (protein, UniProt Q01518 2-475, looked up)
Adenylyl cyclase-associated …: ADMQNLVERLERAVGRLEAVSHTSDMHRGYADSPSKAGAAPYVQAFDSLLAGPVAEYLKISKEIGGDVQKHAEMVHTGLKLERALLVTASQCQQPAENKLSDLLAPISEQIKEVITFREKNRGSKLFNHLSAVSESIQALGWVAMAPKPGPYVKEMNDAAMFYTNRVLKEYKDVDKKHVDWVKAYLSIWTELQAYIKEFHTTGLAWSKTGPVAKELSGLPSGPSAGSCPPPPPPCPPPPPVSTISCSYESASRSSLFAQINQGESITHALKHVSDDMKTHKNPALKAQSGPVRSGPKPFSAPKPQTSPSPKRATKKEPAVLELEGKKWRVENQENVSNLVIEDTELKQVAYIYKCVNTTLQIKGKINSITVDNCKKLGLVFDDVVGIVEIINSKDVKVQVMGKVPTISINKTDGCHAYLSKNSLDCEIVSAKSSEMNVLIPTEGGDFNEFPVPEQFKTLWNGQKLVTTVTEIAG
Increase of sAC activity on co-expression (sAC [11]): approximately four-fold

Reference: patent US6544768B1, “Mammalian soluble adenylyl cyclase” (Cornell Research Foundation, Inc., priority 1999, dated 2003)
